Where two headings read alike, the source gives them in different places.
How the values were obtained:
Type in all cases: in vivo
[1] = system: velvetleaf (Abutilon theophrasti); assay: General postemergence herbicidal activity, velvetleaf; conditions: post-emergence, 336 h, read-out: ABUTH % Visual Injury; for pest or weed control at 35 g/ha: 35 g ai/ha; for pest or weed control at 140 g/ha: 140 g ai/ha
Method: (§1) Seeds or nutlets of the desired test plant species were planted in Sun Gro MetroMix® 360 planting mixture, which typically has a pH of 6.0 to 6.8 and an organic matter content of about 30 percent, in plastic pots with a surface area of 64 square centimeters (cm^2). When required to ensure good germination and healthy plants, a fungicide treatment and/or other chemical or physical treatment was applied. The plants were grown for 7-21 days (d) in a greenhouse with an approximate 15-hour (h) photoperiod which was maintained at about 23-29° C. during the day and 22-28° C. during the night. Nutrients and water were added on a regular basis and supplemental lighting was provided with overhead metal halide 1000-Watt lamps as necessary. The plants were employed for testing when they reached the first or second true leaf stage.
(§2) A weighed amount, determined by the highest rate to be tested, of each test compound was dissolved in 4 mL of a 97:3 volume per volume (v/v) mixture of acetone and dimethyl sulfoxide (DMSO) to obtain concentrated stock solutions. […] The concentrated stock solutions obtained were diluted with 20 mL of an aqueous mixture containing acetone, water, isopropyl alcohol, DMSO, Atplus 411F crop oil concentrate, and Triton X-155 surfactant in a 48.5:39:10:1.5:1.0:0.02 v/v ratio to obtain spray solutions containing the highest application rates. Additional application rates were obtained by serial dilution of 12 mL of the high rate solution into a solution containing 2 mL of 97:3 v/v mixture of acetone and DMSO and 10 mL of an aqueous mixture containing acetone, water, isopropyl alcohol, DMSO, Atplus 411F crop oil concentrate, and Triton X-155 surfactant in a 48.5:39:10:1.5:1.0:0.02 v/v ratio to obtain ½×, ¼×, ⅛× and 1/16× rates of the high rate. Compound requirements are based upon a 12 mL application volume at a rate of 187 liters per hectare (L/ha). Formulated compounds were applied to the plant material with an overhead Mandel track sprayer equipped with 8002E nozzles calibrated to deliver 187 L/ha over an application area of 0.503 square meters (m^2) at a spray height of 18 inches (43 cm) above the average plant canopy height. Control plants were sprayed in the same manner with the solvent blank.
(§3) The treated plants and control plants were placed in a greenhouse as described above and watered by sub-irrigation to prevent wash-off of the test compounds. After 14 d, the condition of the test plants as compared with that of the untreated plants was determined visually and scored on a scale of 0 to 100 percent where 0 corresponds to no injury and 100 corresponds to complete kill.

[2] = system: corn (Zea mays); assay: General postemergence herbicidal activity, corn; conditions: post-emergence, 336 h, read-out: ZEAMX % Visual Injury; for plant injury at 35 g/ha: 35 g ai/ha; for plant injury at 140 g/ha: 140 g ai/ha
Method: as §1, §2, §3

[3] = system: wild buckwheat (Polygonum convululus); assay: General postemergence herbicidal activity, wild buckwheat; conditions: post-emergence, 336 h, read-out: POLCO % Visual Injury; for pest or weed control at 35 g/ha: 35 g ai/ha; for pest or weed control at 140 g/ha: 140 g ai/ha
Method: as §1, §2, §3

[4] = system: lambsquarters (Chenopodium album); assay: General postemergence herbicidal activity, lambsquarters; conditions: post-emergence, 336 h, read-out: CHEAL % Visual Injury; for pest or weed control at 35 g/ha: 35 g ai/ha; for pest or weed control at 140 g/ha: 140 g ai/ha
Method: as §1, §2, §3

[5] = 70 g ai/ha, postemergence, after 14 d, 0 = no injury, 100 = complete kill
[6] = postemergence, after 14 d, 0 = no injury, 100 = complete kill
[7] = 280 g ai/ha, postemergence, after 14 d, 0 = no injury, 100 = complete kill
[8] = 8.75 g ai/ha, postemergence, after 14 d, 0 = no injury, 100 = complete kill
[9] = 17.5 g ai/ha, postemergence, after 14 d, 0 = no injury, 100 = complete kill

Question: How did the pest or weed control at 70 g/ha [1, 5] turn out when `COC[C@H]1O[C@H](ONC(=O)c2nc(-c3ccc(Cl)c(OC)c3F)cc(N)c2Cl)[C@H](OC)[C@@H](OC)[C@@H]1OC` [Compound 16, 4-Amino-3-chloro-6-(4-chloro-2-fluoro-3-methoxyphenyl)-N-((2R,3R,4S,5R,6R)-3,4,5-trimethoxy-6-(methoxymethyl)tetrahydro-2H-pyran-2-yloxy)picolinamide] was run?
Answer: 100%

Question: What about the plant injury at 70 g/ha [2, 5] of the same compound?
Answer: 10%

Question: What about the pest or weed control at 70 g/ha [3, 5] of the same compound?
Answer: 95%

Question: And the pest or weed control at 70 g/ha [4, 5]?
Answer: 100%

Question: `COc1c(Cl)ccc(-c2cc(N)c(Cl)c(C(=O)NOCC3CC3)n2)c1F` [Compound 32, 4-Amino-3-chloro-6-(4-chloro-2-fluoro-3-methoxyphenyl)-N-(cyclopropyl-methoxy)picolinamide] was tested. Which pest or weed control at 35 g/ha [1, 6] did it give?
Answer: 100%

Question: What about the plant injury at 35 g/ha [2, 6] of the same compound?
Answer: 10%

Question: And the pest or weed control at 35 g/ha [3, 6]?
Answer: 100%

Question: What about the pest or weed control at 35 g/ha [4, 6] of the same compound?
Answer: 100%

Question: With `Nc1cc(Cl)nc(C(=O)NOCc2ccc(F)cc2)c1Cl` [Compound 34, 4-Amino-3,6-dichloro-N-(4-fluorobenzyloxy)picolinamide] as the compound, how does the pest or weed control at 280 g/ha [1, 7] read?
Answer: 65%

Question: What about the plant injury at 280 g/ha [2, 7] of the same compound?
Answer: 20%

Question: What about the pest or weed control at 280 g/ha [3, 7] of the same compound?
Answer: 100%

Question: What about the pest or weed control at 280 g/ha [4, 7] of the same compound?
Answer: 100%

Question: With `COc1c(Cl)ccc(-c2cc(N)c(Cl)c(C(=O)NOc3ccccc3)n2)c1F` [Compound 20, 4-Amino-3-chloro-6-(4-chloro-2-fluoro-3-methoxyphenyl)-N-phenoxypicolinamide] as the compound, how does the pest or weed control at 70 g/ha [1, 5] read?
Answer: 100%

Question: And the plant injury at 70 g/ha [2, 5]?
Answer: 25%

Question: And the pest or weed control at 70 g/ha [3, 5]?
Answer: 100%

Question: And the pest or weed control at 70 g/ha [4, 5]?
Answer: 95%

Question: For `C=CCONC(=O)c1nc(-c2ccc(Cl)c(OC)c2F)nc(N)c1C=C` [Compound 10, N-(2-Propenyloxy)-6-amino-2-(4-chloro-2-fluoro-3-methoxyphenyl)-5-vinylpyrimidine-4-carboxamide], which pest or weed control at 140 g/ha [1, 6] is on record?
Answer: 100%

Question: What about the plant injury at 140 g/ha [2, 6] of the same compound?
Answer: 15%

Question: What about the pest or weed control at 140 g/ha [3, 6] of the same compound?
Answer: 15%

Question: What about the pest or weed control at 140 g/ha [4, 6] of the same compound?
Answer: 85%

Question: Which pest or weed control at 70 g/ha [1] does the source give for `C=CCONC(=O)c1nc(-c2ccc(Cl)c(OC)c2F)cc(N)c1Cl` [Compound 59, sodium 2-propenyloxy(4-amino-3-chloro-6-(4-chloro-2-fluoro-3-methoxyphenyl)picolinoyl)amide] here?
Answer: 100%

Question: What about the plant injury at 70 g/ha [2] of the same compound?
Answer: 10%

Question: What about the pest or weed control at 70 g/ha [3] of the same compound?
Answer: 85%

Question: And the pest or weed control at 70 g/ha [4]?
Answer: 95%

Question: With `C=C(Cl)CONC(=O)c1nc(-c2ccc(Cl)c(OC)c2F)cc(N)c1Cl` [Compound 29, 4-Amino-3-chloro-6-(4-chloro-2-fluoro-3-methoxyphenyl)-N-(2-chloro-2-propenyl-oxy)picolinamide] as the compound, how does the pest or weed control at 35 g/ha [1, 6] read?
Answer: 100%

Question: What about the plant injury at 35 g/ha [2, 6] of the same compound?
Answer: 50%

Question: And the pest or weed control at 35 g/ha [3, 6]?
Answer: 100%

Question: What about the pest or weed control at 35 g/ha [4, 6] of the same compound?
Answer: 100%

Question: With `C=CCCONC(=O)c1nc(-c2ccc(Cl)c(OC)c2F)cc(N)c1Cl` [Compound 38, 4-Amino-N-(3-butenyloxy)-3-chloro-6-(4-chloro-2-fluoro-3-methoxyphenyl)picolinamide] as the compound, how does the pest or weed control at 35 g/ha [1, 6] read?
Answer: 100%

Question: And the plant injury at 35 g/ha [2, 6]?
Answer: 35%

Question: And the pest or weed control at 35 g/ha [3, 6]?
Answer: 100%

Question: What about the pest or weed control at 35 g/ha [4, 6] of the same compound?
Answer: 100%

Question: `COc1ccc(CONC(=O)c2nc(-c3ccc(Cl)c(OC)c3F)cc(N)c2Cl)cc1` [Compound 23, 4-Amino-3-chloro-6-(4-chloro-2-fluoro-3-methoxyphenyl)-N-(4-methoxy-benzyloxy)picolinamide] was tested. Which pest or weed control at 70 g/ha [1, 5] did it give?
Answer: 100%

Question: What about the plant injury at 70 g/ha [2, 5] of the same compound?
Answer: 15%

Question: And the pest or weed control at 70 g/ha [3, 5]?
Answer: 100%

Question: What about the pest or weed control at 70 g/ha [4, 5] of the same compound?
Answer: 100%

Question: With `C=CCONC(=O)c1nc(C2CC2)nc(N)c1Cl` [Compound 11, N-(2-Propenyloxy)-6-amino-5-chloro-2-cyclopropylpyrimidine-4-carboxamide] as the compound, how does the pest or weed control at 140 g/ha [1, 6] read?
Answer: 40%

Question: And the plant injury at 140 g/ha [2, 6]?
Answer: 20%

Question: And the pest or weed control at 140 g/ha [3, 6]?
Answer: 100%

Question: What about the pest or weed control at 140 g/ha [4, 6] of the same compound?
Answer: 100%

Question: Which pest or weed control at 140 g/ha [1, 6] does the source give for `C=CCON(C(C)=O)C(=O)c1nc(-c2ccc(Cl)c(OC)c2F)nc(N)c1C=C` [Compound 9, N-Acetyl-N-(2-propenyloxy)-6-amino-2-(4-chloro-2-fluoro-3-methoxyphenyl)-5-vinylpyrimidine-4-carboxamide] here?
Answer: 95%

Question: What about the plant injury at 140 g/ha [2, 6] of the same compound?
Answer: 25%

Question: And the pest or weed control at 140 g/ha [3, 6]?
Answer: 80%

Question: And the pest or weed control at 140 g/ha [4, 6]?
Answer: 100%

Question: What does the source list for `C=CCONC(=O)c1nc(-c2ccc(Cl)c(OC)c2F)nc(N)c1Cl` [Compound 25, N-(2-Propenyloxy)-6-amino-5-chloro-2-(4-chloro-2-fluoro-3-methoxyphenyl)pyrimidine-4-carboxamide]?
Answer: pest or weed control at 8.75 g/ha [1, 8]: 90%; plant injury at 8.75 g/ha [2, 8]: 60%; pest or weed control at 8.75 g/ha [3, 8]: 100%; pest or weed control at 8.75 g/ha [4, 8]: 100%

Question: For `C=C(C)CONC(=O)c1nc(-c2ccc(Cl)c(OC)c2F)cc(N)c1Cl` [Compound 28, 4-Amino-3-chloro-6-(4-chloro-2-fluoro-3-methoxyphenyl)-N-(2-methyl-2-propenyl-oxy)picolinamide], which pest or weed control at 35 g/ha [1, 6] is on record?
Answer: 100%

Question: What about the plant injury at 35 g/ha [2, 6] of the same compound?
Answer: 25%

Question: And the pest or weed control at 35 g/ha [4, 6]?
Answer: 100%

Question: Which pest or weed control at 17.5 g/ha [1, 9] does the source give for `COc1c(Cl)ccc(-c2cc(N)c(Cl)c(C(=O)NOCc3nnsc3Cl)n2)c1F` [Compound 47, 4-Amino-3-chloro-N-((5-chloro-1,2,3-thiadiazol-4-yl)methoxy)-6-(4-chloro-2-fluoro-3-methoxyphenyl)picolinamide] here?
Answer: 100%

Question: What about the plant injury at 17.5 g/ha [2, 9] of the same compound?
Answer: 35%

Question: And the pest or weed control at 17.5 g/ha [4, 9]?
Answer: 100%

Question: For `COc1c(Cl)ccc(-c2cc(N)c(Cl)c(C(=O)NOCc3cncs3)n2)c1F` [Compound 36, 4-Amino-3-chloro-6-(4-chloro-2-fluoro-3-methoxyphenyl)-N-(thiazol-5-yl-methoxy)picolinamide], which pest or weed control at 35 g/ha [1, 6] is on record?
Answer: 100%

Question: And the plant injury at 35 g/ha [2, 6]?
Answer: 25%

Question: What about the pest or weed control at 35 g/ha [4, 6] of the same compound?
Answer: 100%

From patent US20130324412A1, “N-ALKOXYAMIDES OF 6-(SUBSTITUTED PHENYL)-4-AMINOPICOLINATES AND 2-(SUBSTITUTED PHENYL)-6-AMINO-4-PYRIMIDINECARBOXYLATES AND THEIR USE AS SELECTIVE HERBICIDES FOR CROPS” (DOW AGROSCIENCES LLC, priority 2009, published 2013)
